According to patent US8975275B2, “Use of chemotherapeutic agents” (priority 1999, dated 2015):
Where a name gives a salt, the structure may show the parent alone.

Legend:
Format in all cases: in vivo, human
[1] = test system: dentin wounds; test: Prophylaxis of dentin wounds (patient cases)
Description: For this reason, after removal of the carious regions, the compounds of formula (I) or formula (II) are applied to the prepared cavities and rubbed in. Said compounds are applied in the form of solutions, gels or suspensions to form a local depot with an antibiotic action before the reliner is placed on and/or in the fundament of the inlays, onlays, crowns or bridges. […] A further advantage is that the tubule structure is not modified or denatured here, as is frequently the case with the current procedures using dentin protecting agents and impregnating agents. The microbe-free conditions achieved in this way have a permanent beneficial effect on prosthetic procedures since dentin hypersensitivities and subsequently secondary caries are effectively avoided.
The application of the compounds of formula (I) or formula (II) can either replace or complement the disinfecting treatment with hydrogen peroxide. The compounds of formula (I) or formula (II) can be applied in dissolved form or as a gel, optionally in the presence of solubilizers to promote a deep penetration of the chemotherapeutic agents into the dentinal tubules. Gels are used in the provisional care of dentin wounds and solutions are preferably used before the definitive fixing of e.g. crowns and bridges. The solutions or gels of the chemotherapeutic agents used are applied to the prepared dentin surfaces and gently rubbed in. Residues are then removed, for example with a cotton wool swab or air jet. Inlays, onlays, crowns or bridges can then be fixed. The compounds of formula (I) or formula (II) can be used in concentrations of 0.005 mg/ml to 200 mg/ml. Preferred concentrations are those ranging from 0.5 mg/ml to 150 mg/ml and particularly preferred concentrations are those ranging from 10 to 100 mg/ml.

[2] = test system: pulpitis due to carious diseases; test: Topical treatment of pulpitis due to carious diseases (patient cases)
Description: This is of great importance because, for example in the case of caries profunda, it is always necessary to decide whether softened residual dentin can be left over the pulp. By virtue of complete elimination of the microbes present, there is now a novel method of treatment wherein a thin softened dentin covering can be left if the compounds of formula (I) or formula (II) are used. This method of treatment makes it possible to free infected dentin layers of microbes and to stop pulp infections. This means that pain reactions are eliminated and pulp infections are to a certain extent cured. The pulp remains vital. The topical application of the compounds of formula (I) or formula (II) followed the removal of the carious dentin. The compounds of formula (I) or formula (II) were applied for example in aqueous solution, in a form of gelatinous consistency or on an inert carrier, for example by means of a cotton wool plug. The overlying cavity was occluded with a cement to seal the margins. The cotton wool plug was left in the cavity for three to six days. The compounds of formula (I) or formula (II) can be used in concentrations of 0.005 mg/ml to 200 mg/ml, Preferred concentrations are those ranging from 0.5 mg/ml to 150 mg/ml and particularly preferred concentrations are those ranging from 10 to 100 mg/ml.

[3] = test system: osseomucosal wounds; test: Topical treatment of osseomucosal wounds (patient cases)
Description: Application is effected by flushing and/or by means of strip inserts impregnated with compounds of formula (I) or formula (II). They are to be used for example for postoperative infections following dentosurgical interventions (extractions). For this purpose the gel containing the compound of formula (I) or formula (II) is syringed directly into the extraction wound or onto a collagen sponge which remains in the extraction wound. The wound is closed for about half an hour by biting on a tampon. Prophylactic applications have been particularly successful after the extraction of teeth with focal infections, Liquid forms of administration suitable for flushing fistulae are those containing the compounds of formula (I) or formula (II) in concentrations of 0.005 mg/ml to 250 mg/ml. Preferred concentrations are those ranging from 0.5 to 100 mg/ml, Forms suitable for coating strips are gels containing the compounds of formula (I) or formula (II), as well as aqueous solutions or suspensions. These applications can contain the compounds of formula (I) or formula (II) in concentrations of 0.005 mg/ml to 200 mg/ml. Preferred concentrations for solutions are those ranging from 0.1 to 50 mg/ml Gelatinous forms of administration in concentrations of 25-150 mg/ml are preferred in the case of strip inserts.

In the case of `COc1c(N2C[C@@H]3CCCN[C@@H]3C2)c(F)cc2c(=O)c(C(=O)O)cn(C3CC3)c12` [moxifloxacin hydrochloride, 1-cyclopropyl-6-fluoro-1,4-dihydro-8-methoxy-7-[(4aS,7aS)-octahydro-6H-pyrrolo[3,4-b]pyridin-6-yl]-4-oxo-3-quinolinecarboxylic acid], the “clinical finding at check-up” value ([1]; Patient A 2.1, teeth 33 and 36 prepared for bridge, solution 25 mg/ml to cavity, check-up after 3 weeks) is reported as “patient symptom-free”, the “clinical finding at check-up” value ([1]; Patient A 2.2, solution 50 mg/ml, after final filling, check-up after 4 weeks) is reported as “teeth vital, patient symptom-free” and the “clinical finding at check-up” value ([1]; Patient A 2.2, teeth 22, 23, 24, smear with solution 50 mg/ml, check-up after 2 weeks) is reported as “teeth symptom-free”. For the same molecule, the “clinical finding at check-up” value ([1]; Patient A 2.3, teeth 14-17 cervical erosions, smear with solution 50 mg/m, check-up after 3 weeks) was “patient symptom-free”, the “clinical finding at check-up” value ([1]; Patient A 2.4, teeth 11, 12, 21, 22 prepared for crowns, smear with solution 25 mg/ml, check-up after 3 weeks) was “patient symptom-free” and the “clinical finding at check-up” value ([1]; Patient A 2.5, tooth 44, smear with solution 25 mg/ml, check-up after 9 days) was “patient symptom-free”. For the same molecule, the “clinical finding at check-up” value ([2]; Patient A 1.1, gel 25 mg/ml, after final filling, check-up after 3 weeks) was “tooth vital, patient symptom-free”, the “clinical finding at check-up” value ([2]; Patient A 1.10, teeth 16, 17, 27, 36, 37, 46 occlusal caries, pellet inserts gel 50 mg/ml, check-up after 14 days) was “patient symptom-free, teeth vital” and the “clinical finding at check-up” value ([2]; Patient A 1.1, tooth 24 carious defect, pellet insert gel 25 mg/ml, check-up after 4 days) was “patient was symptom-free”. For the same molecule, the “clinical finding at check-up” value ([2]; Patient A 1.2, gel 50 mg/ml, after final filling, check-up after 14 days) was “teeth vital, patient symptom-free”, the “clinical finding at check-up” value ([2]; Patient A 1.2, teeth 11, 13 carious defects, pellet inserts gel 50 mg/ml, check-up after 1 week) was “teeth 11 and 13 symptom-free” and the “clinical finding at check-up” value ([2]; Patient A 1.3, gel 25 mg/ml, repetition of insert, check-up after 3 days) was “tooth vital, patient symptom-free”. The “clinical finding at check-up” value ([2]; Patient A 1.3, tooth 24 carious defect, pellet insert gel 25 mg/ml, check-up after one week) was “still slight discomfort of unknown origin”, the “clinical finding at check-up” value ([2]; Patient A 1.4, major mesial carious defect, night pain, pellet inserts gel 50 mg/ml, check-up after 7 days) was “patient symptom-free, tooth vital” and the “clinical finding at check-up” value ([2]; Patient A 1.5, tooth 13 weakly vital, night pain, pellet insert gel 50 mg/ml, check-up after 4 days) was “patient symptom-free, tooth vital”. The “clinical finding at check-up” value ([2]; Patient A 1.6, gel 50 mg/ml, repetition of insert, check-up after 7 days) was “patient symptom-free, tooth vital”, the “clinical finding at check-up” value ([2]; Patient A 1.6, tooth 36 reduced vitality, pellet insert gel 50 mg/ml, check-up after 6 days) was “still slight sensitivity to heat and cold” and the “clinical finding at check-up” value ([2]; Patient A 1.7, tooth 44 reduced vitality, pellet inserts gel 50 mg/ml, check-up after 4 days) was “patient symptom-free”. The “clinical finding at check-up” value ([2]; Patient A 1.8, tooth 36 reduced vitality, pellet insert gel 50 mg/ml, check-up after 3 weeks) was “patient symptom-free, tooth vital”, the “clinical finding at check-up” value ([2]; Patient A 1.9, tooth 27, pellet insert gel 25 mg/ml, check-up after 7 days) was “patient symptom-free, tooth vital” and the “clinical finding at check-up” value ([3]; Patient C 1, wound care after extraction, depot of gel 50 mg/ml by gauze strip, check-up after 3 days) was “patient symptom-free, good wound margin adaptation”. The “clinical finding at check-up” value ([3]; Patient C 2, regio 36 fistulation, incision, flushing solution 50 mg/ml + strip insert gel 50 mg/ml, check-up after 3 days) was “patient symptom-free, good rapid healing process”, the “clinical finding at check-up” value ([3]; Patient C 3, teeth 26 and 46 apical granulomas, extraction (osteotomy), gauze with gel 50 mg/ml, check-up after 2 days) was “patient symptom-free” and the “clinical finding at check-up” value ([3]; Patient C 4, gauze with gel 50 mg/ml, check-up after one week) was “good wound margin adaptation, patient symptom-free”. For the same molecule, the “clinical finding at check-up” value ([3]; Patient C 4, tooth 48 osteotomy, gauze with gel 50 mg/ml, check-up after 2 days) was “slight wound pain, no postoperative oedema”, the “clinical finding at check-up” value ([3]; Patient C 5, after root canal filling, check-up after 3 weeks) was “patient symptom-free” and the “clinical finding at check-up” value ([3]; Patient C 5, tooth 34 pulpitis purulenta, fistulation, flushing solution 50 mg/ml + canal insert and gauze insert gel 50 mg/ml, check-up after 3 days) was “good healing process, patient symptom-free”. The “clinical finding at check-up” value ([3]; Patient C 6, tooth 36 wound care after extraction, depot of gel 50 mg/ml by gauze strips, check-up after 3 days) was “patient symptom-free, good wound margin adaptation”, the “clinical finding at check-up” value ([3]; Patient C 7, tooth 22 root tip resection due to cyst, strip insert gel 50 mg/ml, check-up after 3 days) was “patient symptom-free, good healing process” and the “clinical finding at check-up” value ([3]; Patient C 9, same combined treatment, after root canal filling, check-up after 2 weeks) was “patient symptom-free”. The “clinical finding at check-up” value ([3]; Patient C 9, tooth 14 pulpitis purulenta, fistulation, moxifloxacin hydrochloride solution 25 mg/ml flushing + grepafloxacin gel 25 mg/ml canal insert + moxifloxacin hydrochloride gel 25 mg/ml gauze insert, check-up after 6 days) was “patient symptom-free”.
